US10806726B2, “Methods of using indazole-3-carb oxamides and their use as Wnt/B-catenin signaling pathway inhibitors” (Samumed, LLC, priority 2016, dated 2020)
pEC50: −log10 of the molar value.

Experiments:
[1] = tested on: IL6 production in THP-1 cells; assay: Cytokine Production Assay, LPS-induced IL6 in THP-1 cells; type: cell-based; conditions: Homo sapiens; THP-1, LPS 500 ng/ml 22 hours, 2 independent assays; read-out: average EC50, inhibition of IL6 production
Procedure: THP-1 cells were cultured in basal media with 1% FBS for 24 hours before the start of the assay. THP-1 cells were plated at 6×10e^4 cells/well and treated with DMSO (vehicle control) or compound 175 at 10 μM highest test concentration and 2 to 3.5-fold serial dilutions up to 8 concentrations (10, 3.5, 1, 0.5, 0.1, 0.035, 0.01, 0.005 μM). For the TNFα assay, 50 ng/mL of LPS was added to the wells after 2 hours to induce cytokine production, and cells were incubated for 5 hours at 37° C. For the IL6 assay, 500 ng/ml of LPS was added after 2 hours and cells were incubated for 22 hours at 37° C. Plates were spun in a centrifuge for 1 minute at 10,000 rpm and supernatants were collected for ELISA. Supernatants were diluted 1:1 for the TNFα assay and 1:4 for the IL6 assay using the assay medium. ELISA was performed using Human TNF-α ELISA MAX™ Deluxe (Catalog #430204, Biolegend, San Diego, Calif.) and Human IL-6 ELISA MAX™ Deluxe (Catalog #430504, Biolegend, San Diego, Calif.) kits. […] Following several washes to remove unbound avidin-HRP, the TMB substrate was added and the plates were read on the Cytation 3 plate reader (Biotek Inc., Winooski, Vt.) at an absorbance of 450 nm with correction at 570 nm. […] Inhibition profile and EC50 was calculated using Prism 5 (GraphPad Software Inc, La Jolla, Calif., USA). […]

[2] = tested on: Wnt-responsive promoter driving firefly luciferase in SW480 cells; assay: Wnt reporter (SP5 promoter-luciferase) screening assay in SW480 cells; type: cell-based; conditions: Homo sapiens, 24-40 h, top concentration ten micromolar
Method in brief: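 SW480 (APC-mutant colon) cells stably transduced with lentiviral SP5-promoter (eight TCF/LEF sites) firefly luciferase, ~10,000 cells/well. Signals normalized to DMSO controls for EC50 fitting.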

[3] = tested on: collagenase-induced tendonitis of the Achilles tendon in Sprague Dawley rats; assay: Rat Tendinopathy Model (1), collagenase-induced, tendon histology scoring; type: in vivo; conditions: for tendon histology score: topical once daily 21 days, total score of 20
Procedure: Fifty (50 μl) of Collagenase Type IA (10 mg/ml in PBS, pH 7.4, approximately 469 units/mg) (Catalog # C5138, Sigma, St. Louis, Mo.) was injected into the Achilles tendon of both ankles near the osteotendinous junction of male Sprague Dawley CD® IGS rats (CRL, Inc.), using insulin syringes with 28.5 G needle.
Rats were divided into […] with 5 animals per group: Group 1 (sham injection); Group 2 (Collagenase-Vehicle); Group 3 (Collagenase-compound 175 10 mg/mL with 1% BA) and Group 4 (Collagenase-COMPOUND 175 10 mg/mL with 0.5% Tween 80). […] All rats were periodically observed for any pain, illnesses or abnormalities. At various time points, blood was collected for plasma in lithium heparin coated tubes by saphenous vein bleeding. For histology, rats were euthanized using isoflurane, tendons were isolated (n=6 tendons/group), fixed in 10% buffered formalin (Catalog # SF93-4, Fisher, Pittsburgh Pa.) and H & E histology staining was performed at a secondary site (Pacific Pathology, San Diego, Calif.). For biochemical analysis, tendons were isolated (n=4 tendons/group), flash frozen in liquid nitrogen and then stored at −80° C. for subsequent biochemical analysis (not reported).
There is biological variability in response to collagenase when injected directly into the tendons. […] Slides were viewed under an upright light microscope (EVOS AMEX-1200) at a 10× magnification and scored blinded using a 1-4 scoring system of severity: 1—representing severe damage and 4—representing normal tendon, for Linearity of the fiber structure, Shape of the tendon cells, Density of the tendon cells, Inflammation, and Hemorrhage for a total score of twenty (20) using a modification of that described previously (Urdzikova et al., 2014—see Table 3). […]
For tendon scoring, each section was analyzed following a 1-4 point scoring system as previously described (Urdzikova et al., 2014) with the exclusion of one variable, the Thickness of the epitenon, due to the difficulty in discerning the epitenon layer in histology sections. […]

COc1ccc(NC(=O)c2n[nH]c3ccc(-c4cncc(CN5CCCCC5)c4)cc23)cn1 [compound 175, N-(6-Methoxypyridin-3-yl)-5-(5-(piperidin-1-ylmethyl)pyridin-3-yl)-1H-indazole-3-carboxamide]
pEC50 [1]: 6.20 to 6.45 | pEC50 [2]: 7.60 | blinded histology scoring of tendon injury and inflammation vs vehicle ([3]; 10 mg/ml with or without BA preservative, topical 21 days): significantly ameliorated collagenase-induced tendinopathy | tendon histology score ([3]; Group 3, 10 mg/mL with BA): 14.0 (±0.217) | tendon histology score ([3]; Group 4, 10 mg/mL without BA (0.5% Tween 80)): 12.2 (±0.284)
